Measured values published in patent publication US10676446B2, “Bicyclic quinazolinone derivatives” (Hoffmann-La Roche Inc., priority 2015, dated 2020).

biological target: human ATX (autotaxin, ENPP2), His-tagged (Homo sapiens (Human), UniProt Q13822); experiment: Human ATX enzyme inhibition assay (fluorescence quenching, MR121 substrate); assay type: biochemical; settings: 30 nM ATX, 1 μM MR121 substrate, 30° C., pH 8.0
Description: Human ATX Enzyme Inhibition Assay
ATX inhibition was measured by a fluorescence quenching assay using a specifically labeled substrate analogue (MR121 substrate). To obtain this MR121 substrate, BOC and TBS protected 6-amino-hexanoic acid (R)-3-({2-[3-(2-{2-[2-(2-amino-ethoxy)-ethoxy]-ethoxy}-ethoxy)-propionylamino]-ethoxy}-hydroxy-phosphoryloxy)-2-hydroxy-propyl ester (Ferguson et al., Org. Lett. 2006, 8, 2023) was labeled with MR121 fluorophore [CAS RN 185308-24-1], 1-(3-carboxypropyl)-11-ethyl-1,2,3,4,8,9,10,11-octahydro-dipyrido[3,2-b:2′,3′-i]phenoxazin-13-ium) on the free amine of the ethanolamine side and then, after deprotection, subsequently with tryptophan on the side of the aminohexanoic acid.
Assay working solutions were made as follows:
Assay buffer (50 mM Tris-HCl, 140 mM NaCl, 5 mM KCl, 1 mM CaCl2, 1 mM MgCl2, 0.01% Triton-X-100, pH 8.0;
ATX solution: ATX (human His-tagged) stock solution (1.08 mg/mL in 20 mM bicine, pH 8.5, 0.15 M NaCl, 10% glycerol, 0.3% CHAPS, 0.02% NaN3), diluted to 1.4-2.5× final concentration in assay buffer;
MR121 substrate solution: MR121 substrate stock solution (800 μM MR121 substrate in DMSO), diluted to 2-5× final concentration in assay buffer.
Test compounds (10 mM stock in DMSO, 8 μL) were obtained in 384 well sample plates (Corning Costar #3655) and diluted with 8 μL DMSO. Row-wise serial dilutions were made by transferring 8 μL cpd solution to the next row up to row O. The compound and control solutions were mixed five times and 2 μL were transferred to 384 well assay plates (Corning Costar #3702). Then, 15 μL of 41.7 nM ATX solution was added (30 nM final concentration), mixed five times and then incubated for 15 minutes at 30° C. 10 μL of MR121 substrate solution was added (1 μM final concentration), mixed 30 times and then incubated for 15 minutes at 30° C.

`CN(Cc1ccc(Cl)c(Cl)c1)C(=O)Cn1cnc2ccc(N3CCN(C(=O)C4CC(F)C4)CC3)cc2c1=O` (stereo not shown) [Example 74] and `COC1CC(C(=O)N2CCN(c3ccc4ncn(CC(=O)N(C)Cc5ccc(Cl)c(Cl)c5)c(=O)c4c3)CC2)C1` (stereo not shown) [Example 78] are within 1.5-fold of each other in IC50: 0.007 µM for the first, 0.009 µM for the second.

`CN(Cc1ccc(C#N)c(Cl)c1)C(=O)Cn1cnc2ccc(C3CCN(C(=O)CO)CC3)cc2c1=O` [Example 131, N-[(3-Chloro-4-cyanophenyl)methyl]-2-[6-[1-(2-hydroxyacetyl)piperidin-4-yl]-4-oxoquinazolin-3-yl]-N-methylacetamide] and `CC(C)OCC(=O)N1CCC(c2ccc3ncn(CC(=O)N(C)Cc4ccc(C#N)c(Cl)c4)c(=O)c3c2)CC1` [Example 135] are the same in IC50: 0.001 µM for the first, 0.001 µM for the second.

Going from `CN(Cc1ccc(Cl)c(Cl)c1)C(=O)Cn1cnc2ccc(C3CCN(C(=O)C4CCCO4)CC3)cc2c1=O` (stereo not shown) [Example 180] to `CN(Cc1ccc(C#N)c(Cl)c1)C(=O)Cn1cnc2ccc(C3CCN(C(=O)C4CCC4)CC3)cc2c1=O` [Example 137], the IC50 falls from 0.005 µM to 0.002 µM (2.5-fold). The second is the more potent here.

First: CNC(=O)CC(NC(=O)Cn1cnc2ccc(N3CCN(C(C)=O)CC3)cc2c1=O)c1ccc(C(F)(F)F)cc1 (stereo not shown) [Example 4]
Second: CC(=O)N1CCN(c2ccc3ncn(CC(=O)NC(CC(=O)N(C)C)c4ccc(Cl)cc4)c(=O)c3c2)CC1 (stereo not shown) [Example 2]
The IC50 of the first is 2.1-fold lower: 0.17 µM for the first, 0.36 µM for the second. The first is the more potent here.

Compared with `CC(=O)N1CCN(c2ccc3ncn(CC(=O)NCc4cccc([N+](=O)[O-])c4)c(=O)c3c2)CC1` [Example 37], `CC(=O)N1CCN(c2ccc3ncn(CC(=O)NCc4ccc(F)cc4)c(=O)c3c2)CC1` [Example 14] is 20-fold higher in IC50: 0.073 µM for the first, 1.47 µM for the second. The first is the more potent here.

`CN(Cc1ccc(Cl)c(Cl)c1)C(=O)Cn1cnc2ccc(C3CCN(C(=O)c4cnco4)CC3)cc2c1=O` [Example 183] and `CN(Cc1ccc(Cl)c(Cl)c1)C(=O)Cn1cnc2ccc(C3CCN(C(=O)C(C)(C)O)CC3)cc2c1=O` [Example 172] are within 1.5-fold of each other in IC50: 0.028 µM for the first, 0.021 µM for the second.

First: COC(C)C(=O)N1CCC(c2ccc3ncn(CC(=O)N(C)Cc4ccc(C#N)c(Cl)c4)c(=O)c3c2)CC1 (stereo not shown) [Example 133]
Second: C[C@@H](O)C(=O)N1CCC(c2ccc3ncn(CC(=O)N(C)Cc4ccc(C#N)c(Cl)c4)c(=O)c3c2)CC1 [Example 156]
The IC50 of the first is 560-fold lower: 0.001 µM for the first, 0.561 µM for the second.

`COCCC(=O)N1CCC(c2ccc3ncn(CC(=O)N(C)Cc4ccc(C#N)c(Cl)c4)c(=O)c3c2)CC1` [Example 134] and `CN(Cc1ccc(C#N)c(Cl)c1)C(=O)Cn1cnc2ccc(C3CCN(C(=O)C4CC4)CC3)cc2c1=O` [Example 136] are the same in IC50: 0.001 µM for the first, 0.001 µM for the second.

Compared with `CN(Cc1ccc(Cl)c(Cl)c1)C(=O)Cn1cnc2ccc(N3CCN(C(=O)C4(C(F)(F)F)CCC4)CC3)cc2c1=O` [Example 76], `CN(Cc1ccc(Cl)c(Cl)c1)C(=O)Cn1cnc2ccc(N3CCN(C(=O)C4CC(F)(F)C4)CC3)cc2c1=O` [Example 75] is 2-fold lower in IC50: 0.01 µM for the first, 0.005 µM for the second.

Going from `NC1(C(=O)N2CCN(c3ccc4ncn(CC(=O)NCc5ccc(Cl)c(Cl)c5)c(=O)c4c3)CC2)COC1` [Example 70, 2-[6-[4-(3-Aminooxetane-3-carbonyl)piperazin-1-yl]-4-oxoquinazolin-3-yl]-N-[(3,4-dichlorophenyl)methyl]acetamide] to `COCC(=O)N1CCN(c2ccc3ncn(CC(=O)NCc4ccc(Cl)c(Cl)c4)c(=O)c3c2)CC1` [Example 61], the IC50 falls from 0.318 µM to 0.016 µM (20-fold).

Going from `CC(=O)N1CCN(c2ccc3ncn(CC(=O)N(C)Cc4ccc(Cl)c(C#N)c4)c(=O)c3c2)CC1` [Example 57, 2-[6-(4-Acetylpiperazin-1-yl)-4-oxoquinazolin-3-yl]-N-[(4-chloro-3-cyanophenyl)methyl]-N-methylacetamide] to `CCC(=O)N1CCN(c2ccc3ncn(CC(=O)N(C)Cc4ccc(Cl)c(Cl)c4)c(=O)c3c2)CC1` [Example 68], the IC50 falls from 0.008 µM to 0.004 µM (2-fold). The second is the more potent here.

First: CC(=O)N1CCN(c2ccc3ncn(CC(=O)N(CCC(=O)O)Cc4ccc(Cl)c(Cl)c4)c(=O)c3c2)CC1 [Example 54, 3-[[2-[6-(4-Acetylpiperazin-1-yl)-4-oxoquinazolin-3-yl]acetyl]-[(3,4-dichlorophenyl)methyl]amino]propanoic acid]
Second: CC(=O)N1CCN(c2ccc3ncn(CC(=O)N(Cc4ccc(Cl)c(Cl)c4)C(C)C)c(=O)c3c2)CC1 [Example 117, 2-[6-(4-Acetylpiperazin-1-yl)-4-oxoquinazolin-3-yl]-N-[(3,4-dichlorophenyl)methyl]-N-propan-2-ylacetamide]
The IC50 of the first is 52-fold higher: 0.831 µM for the first, 0.016 µM for the second.

Going from `CC(=O)N1CCN(c2ccc3ncn(CC(=O)NCc4ccc(S(F)(F)(F)(F)F)cc4)c(=O)c3c2)CC1` [Example 39] to `CC(=O)N1CCN(c2ccc3ncn(CC(=O)NCc4ccc(OC(F)(F)F)cc4)c(=O)c3c2)CC1` [Example 20], the IC50 falls from 0.012 µM to 0.005 µM (2.4-fold). The second is the more potent here.

Compared with `CC(=O)N1CCN(c2ccc3ncn(CC(=O)NC(C)c4ccc(Cl)cc4)c(=O)c3c2)CC1` (stereo not shown) [Example 13], `CC(=O)N1CCN(c2ccc3ncn(CC(=O)NCc4ccc(Cl)nc4)c(=O)c3c2)CC1` [Example 11] is 4-fold lower in IC50: 0.478 µM for the first, 0.119 µM for the second. The second is the more potent here.

`CC(C)[C@@H](O)C(=O)N1CCC(c2ccc3ncn(CC(=O)N(C)Cc4ccc(Cl)c(Cl)c4)c(=O)c3c2)CC1` [Example 169] and `CO[C@@H](C)C(=O)N1CCC(c2ccc3ncn(CC(=O)N(C)Cc4ccc(Cl)c(Cl)c4)c(=O)c3c2)CC1` [Example 168] are within 1.5-fold of each other in IC50: 0.035 µM for the first, 0.027 µM for the second.

Compared with `O=C(Cn1cnc2ccc(N3CCN(CC4CCC4)CC3)cc2c1=O)NCc1ccc(Cl)c(Cl)c1` [Example 96], `O=C(Cn1cnc2ccc(N3CCN(Cc4ncc[nH]4)CC3)cc2c1=O)NCc1ccc(Cl)c(Cl)c1` [Example 100] is 19-fold higher in IC50: 0.011 µM for the first, 0.204 µM for the second.

First: O=C(Cn1cnc2ccc(N3CCN(Cc4ccoc4C(=O)O)CC3)cc2c1=O)NCc1ccc(Cl)c(Cl)c1 [Example 102]
Second: O=C(Cn1cnc2ccc(N3CCN(C(=O)c4ccno4)CC3)cc2c1=O)NCc1ccc(Cl)c(Cl)c1 [Example 67]
The IC50 of the first is 13-fold higher: 0.195 µM for the first, 0.015 µM for the second.

Going from `CC(=O)N1CCC(c2ccc3ncn(CC(=O)N(C)Cc4ccc(Cl)c(OC(F)(F)F)c4)c(=O)c3c2)CC1` [Example 128, 2-[6-(1-Acetylpiperidin-4-yl)-4-oxoquinazolin-3-yl]-N-[[4-chloro-3-(trifluoromethoxy)phenyl]methyl]-N-methylacetamide] to `CC(=O)N1CCC(c2ccc3ncn(CC(=O)NCc4ccc(Cl)c(C(F)(F)F)c4)c(=O)c3c2)CC1` [Example 163], the IC50 falls from 0.015 µM to 0.001 µM (15-fold). The second is the more potent here.

`CN(Cc1ccc(C#N)c(Cl)c1)C(=O)Cn1cnc2ccc(C3CCN(C(=O)C4COC4)CC3)cc2c1=O` [Example 142] and `CN(Cc1ccc(C#N)c(Cl)c1)C(=O)Cn1cnc2ccc(C3CCN(C(=O)C4CC(F)(F)C4)CC3)cc2c1=O` [Example 140] are within 1.5-fold of each other in IC50: 0.06 µM for the first, 0.047 µM for the second.

`CN(Cc1ccc(Cl)c(C#N)c1)C(=O)Cn1cnc2ccc(C3CCN(CC4CCOC4)CC3)cc2c1=O` (stereo not shown) [Example 144, N-[(4-Chloro-3-cyanophenyl)methyl]-N-methyl-2-[4-oxo-6-[1-(oxolan-3-ylmethyl)piperidin-4-yl]quinazolin-3-yl]acetamide] and `CN(Cc1ccc(C#N)c(Cl)c1)C(=O)Cn1cnc2ccc(C3CCN(S(C)(=O)=O)CC3)cc2c1=O` [Example 145, N-[(3-Chloro-4-cyanophenyl)methyl]-N-methyl-2-[6-(1-methylsulfonylpiperidin-4-yl)-4-oxoquinazolin-3-yl]acetamide] are within 1.5-fold of each other in IC50: 0.086 µM for the first, 0.082 µM for the second.

Going from `CN(Cc1ccc(Cl)c(Cl)c1)C(=O)Cn1cnc2ccc(N3CCN(S(=O)(=O)CC4CCC4)CC3)cc2c1=O` [Example 92] to `CN(Cc1ccc(Cl)c(Cl)c1)C(=O)Cn1cnc2ccc(C3CCN(C(=O)C(O)CO)CC3)cc2c1=O` (stereo not shown) [Example 177], the IC50 rises from 0.007 µM to 0.036 µM (5.1-fold). The first is the more potent here.

First: CC(=O)N1CCN(c2ccc3ncn(CC(=O)NCc4ccc(Cl)c(C(F)(F)F)c4)c(=O)c3c2)CC1 [Example 34]
Second: CC(=O)N1CCN(c2ccc3ncn(CC(=O)NCc4ccc(Cl)c(OC(F)(F)F)c4)c(=O)c3c2)CC1 [Example 38]
The IC50 of the first is 6-fold higher: 0.024 µM for the first, 0.004 µM for the second. The second is the more potent here.

First: CC(=O)N1CCN(c2ccc3ncn(C(C)C(=O)N(C)Cc4ccc(Cl)c(Cl)c4)c(=O)c3c2)CC1 (stereo not shown) [Example 149, 2-[6-(4-Acetylpiperazin-1-yl)-4-oxoquinazolin-3-yl]-N-[(3,4-dichlorophenyl)methyl]-N-methylpropanamide]
Second: CC(=O)N1CCN(c2ccc3ncn(C(C)C(=O)NCc4ccc(Cl)c(Cl)c4)c(=O)c3c2)CC1 (stereo not shown) [Example 148, 2-[6-(4-Acetylpiperazin-1-yl)-4-oxoquinazolin-3-yl]-N-[(3,4-dichlorophenyl)methyl]propanamide]
The IC50 of the first is 2.6-fold higher: 0.039 µM for the first, 0.015 µM for the second.

Compared with `COCCOCC(=O)N1CCC(c2ccc3ncn(CC(=O)N(C)Cc4ccc(Cl)c(Cl)c4)c(=O)c3c2)CC1` [Example 166], `CC(=O)N1CCN(c2ccc3ncn(CC(=O)NCc4ccc(C#N)cc4F)c(=O)c3c2)CC1` [Example 30] is 4.5-fold lower in IC50: 0.627 µM for the first, 0.139 µM for the second.

`CC(=O)N1CCCN(c2ccc3ncn(CC(=O)NCc4ccc(C(F)(F)F)cc4)c(=O)c3c2)CC1` [Example 119] gave an IC50 of 0.649 µM.
